PMC9457168 (Proceedings of the National Academy of Sciences of the …, 2022)

Tests used:
[1] = tested on: LCMV nucleoprotein; assay type: cell-based, lymphocytic choriomeningitis virus
[2] = tested on: LCMV Armstrong strain; assay type: cell-based, lymphocytic choriomeningitis virus
[3] = tested on: LCMV WE strain; conditions: mouse, in vivo
[4] = tested on: LCMV; assay: microbe, parasite or virus in culture; assay type: cell-based, lymphocytic choriomeningitis virus; conditions: Mammarenavirus choriomeningitidis, KB, read-out: EC50 (nM) Mean (SD) LCMV
[5] = tested on: TPMV; assay: microbe, parasite or virus in culture; assay type: cell-based; conditions: Thottapalayam virus, HEK-293T, read-out: EC50 (nM) Mean (SD) TPMV

Structure (SMILES)	LCMV nucleoprotein production (immunofluorescence) [1]	infectious viral particles in culture supernatants, pretreatment [2]	viral propagation, posttreatment [2]	viral titers in supernatants, pretreatment [2]	survival rate [3] [%]	inflammatory foci in liver (pathology) ([3]; 30 mg/kg)	serum IFN-γ levels ([3]; 30 mg/kg)	serum TNF-α levels ([3]; 30 mg/kg)	viral antigen in liver (IHC) ([3]; 30 mg/kg)	EC50 [4] [nM]	EC50 [5] [nM]
NC(=O)c1ncn([C@@H]2O[C@H](CO)[C@@H](O)[C@H]2O)n1 [RBV, Ribavirin]	inhibited only at 1,000 nM	decreased infectious viral particles	significantly reduced viral propagation	increased	20	inflammatory foci were observed	equivalent level to the vehicle-treated mice	higher than that in compound B–treated mice	viral antigens were detected in hepatocytes	–	–
O=C1c2c(O)c(=O)ccn2N([C@@H]2c3ccccc3SCc3c2ccc(F)c3F)[C@@H]2COCCN12 [BXA, baloxavir acid]	–	–	–	–	–	–	–	–	–	> 1000	> 1000
